Reference: BindingDB's records for doi:10.1021/jm010801s (2002)

Molecular target: Cathepsin K (Oryctolagus cuniculus) (UniProt P43236)
Assay: Inhibition of recombinant rabbit Cathepsin K in a fluorescence assay

Sequence of Cathepsin K (Oryctolagus cuniculus) (P43236 whole entry, looked up): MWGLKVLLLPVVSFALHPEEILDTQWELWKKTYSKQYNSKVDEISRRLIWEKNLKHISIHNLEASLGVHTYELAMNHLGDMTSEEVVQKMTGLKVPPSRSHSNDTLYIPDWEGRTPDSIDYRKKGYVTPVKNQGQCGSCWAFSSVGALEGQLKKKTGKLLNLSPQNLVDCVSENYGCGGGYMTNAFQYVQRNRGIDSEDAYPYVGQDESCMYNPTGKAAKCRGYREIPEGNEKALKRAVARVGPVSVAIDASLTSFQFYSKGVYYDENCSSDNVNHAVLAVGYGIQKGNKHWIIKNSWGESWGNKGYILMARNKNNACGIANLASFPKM

Row | SMILES | IC50 [nM]
1 | Cc1cccc(NCCNC(=O)[C@H](CC(C)C)NC(=O)OCc2ccccc2)c1 [[3-Methyl-1-(2-m-tolylamino-ethylcarbamoyl)-butyl]-carbamic acid benzyl ester] | 460
2 | Cc1ccc(NCCNC(=O)[C@H](CC(C)C)NC(=O)OCc2ccccc2)cc1 [[3-Methyl-1-(2-p-tolylamino-ethylcarbamoyl)-butyl]-carbamic acid benzyl ester] | 190
3 | CC(C)C[C@H](NC(=O)OCc1ccccc1)C(=O)NCCNc1ccccc1 [[3-Methyl-1-(2-phenylamino-ethylcarbamoyl)-butyl]-carbamic acid benzyl ester] | 470
4 | CC(C)C[C@H](NC(=O)OCc1ccccc1)C(=O)NCCNc1cccc(Cl)c1 [{1-[2-(3-Chloro-phenylamino)-ethylcarbamoyl]-3-methyl-butyl}-carbamic acid benzyl ester] | > 1000
5 | COc1cccc(NCCNC(=O)[C@H](CC(C)C)NC(=O)OCc2ccccc2)c1 [{1-[2-(3-Methoxy-phenylamino)-ethylcarbamoyl]-3-methyl-butyl}-carbamic acid benzyl ester] | > 1000
6 | CC(C)C[C@H](NC(=O)OCc1ccccc1)C(=O)NCCNc1ccc(Cl)cc1 [{1-[2-(4-Chloro-phenylamino)-ethylcarbamoyl]-3-methyl-butyl}-carbamic acid benzyl ester] | 350
